{"source": "paper PMC6340402", "about": "(Chemical Science, 2018)", "system": "HeLa cells", "experiment": "Cellular uptake in HeLa cells by confocal laser scanning microscopy", "format": "cell-based", "conditions": "30 minutes, 37 °C, serum-containing medium, Fig. 3", "data": [{"substance": "FITC-Ahx-Arg-Arg-Arg-Arg-tetrazine-BCN-Arg-Arg-Arg-Arg-NH2 [R4-b-R4]", "values": [{"measurement": "cellular uptake (CLSM, FITC fluorescence)", "setting": "all concentrations (5, 10, 15 and 20 μM)", "value": "taken up at all concentrations"}, {"measurement": "mechanism of uptake at the higher concentrations (CLSM)", "setting": "higher concentrations", "value": "strong cytosolic uptake"}]}]}
